Laboratory results taken from the supplement of paper PMC10307832.

Key:
Experiment in all cases: relative viability (nuclei count vs DMSO), 5 days (fraction); higher = more cells survive
FG-4592 + Pictilisib = compound: Cc1nc(C(=O)NCC(=O)O)c(O)c2ccc(Oc3ccccc3)cc12 [FG-4592] + CS(=O)(=O)N1CCN(Cc2cc3nc(-c4cccc5[nH]ncc45)nc(N4CCOCC4)c3s2)CC1 [Pictilisib] (partner 1 µM)
Outline: (§1)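 Lung cancer cell lines in 1536-well plates got either a single drug or a fixed anchor-drug dose together with five library-drug doses (not always all listed) in √10 steps, by pin tool, on the day after seeding. Nuclei were counted after 5 days, and relative viability is the treated-to-vehicle ratio of nuclei counts. Values are medians of duplicate plates.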

IU1-47 + Foretinib = compound: CC1=CC(=C(N1C2=CC=C(C=C2)Cl)C)C(=O)CN3CCCCC3 [IU1-47] + COc1cc2c(Oc3ccc(NC(=O)C4(C(=O)Nc5ccc(F)cc5)CC4)cc3F)ccnc2cc1OCCCN1CCOCC1 [Foretinib] (partner 0.25 µM)
Outline: as §1

IU1-47 + Crizotinib = compound: CC1=CC(=C(N1C2=CC=C(C=C2)Cl)C)C(=O)CN3CCCCC3 [IU1-47] + C[C@@H](Oc1cc(-c2cnn(C3CCNCC3)c2)cnc1N)c1c(Cl)ccc(F)c1Cl [Crizotinib] (partner 1 µM)
Outline: as §1

IU1-47 + Linsitinib = compound: CC1=CC(=C(N1C2=CC=C(C=C2)Cl)C)C(=O)CN3CCCCC3 [IU1-47] + C[C@]1(O)C[C@@H](c2nc(-c3ccc4ccc(-c5ccccc5)nc4c3)c3c(N)nccn32)C1 [Linsitinib] (partner 1 µM)
Outline: as §1

Row | Cell Line | relative viability (FG-4592 + Pictilisib; first compound 0.08 µM) | relative viability (FG-4592 + Pictilisib; first compound 0.253 µM) | relative viability (FG-4592 + Pictilisib; first compound 0.8 µM) | relative viability (FG-4592 + Pictilisib; first compound 2.53 µM) | relative viability (FG-4592 + Pictilisib; first compound 8 µM) | relative viability (IU1-47 + Foretinib; first compound 0.08 µM) | relative viability (IU1-47 + Foretinib; first compound 0.253 µM) | relative viability (IU1-47 + Foretinib; first compound 0.8 µM) | relative viability (IU1-47 + Foretinib; first compound 2.53 µM) | relative viability (IU1-47 + Foretinib; first compound 8 µM) | relative viability (IU1-47 + Crizotinib; first compound 0.08 µM) | relative viability (IU1-47 + Crizotinib; first compound 0.253 µM) | relative viability (IU1-47 + Crizotinib; first compound 0.8 µM) | relative viability (IU1-47 + Crizotinib; first compound 2.53 µM) | relative viability (IU1-47 + Crizotinib; first compound 8 µM) | relative viability (IU1-47 + Linsitinib; first compound 0.08 µM) | relative viability (IU1-47 + Linsitinib; first compound 0.253 µM) | relative viability (IU1-47 + Linsitinib; first compound 0.8 µM) | relative viability (IU1-47 + Linsitinib; first compound 2.53 µM) | relative viability (IU1-47 + Linsitinib; first compound 8 µM)
1 | HCC-15 | 0.65 | 0.723 | 0.738 | 0.729 | 0.784 | 1.07 | 1.11 | 1.15 | 1.01 | 1.05 | 0.949 | 0.879 | 0.908 | 0.825 | 0.704 | 0.931 | 0.967 | 0.9 | 0.917 | 0.801
2 | A-427 | 0.674 | 0.739 | 0.503 | 0.661 | 0.742 | 1.08 | 1.16 | 1.22 |  | 0.93 | 1.04 | 0.938 | 0.944 |  | 0.634 | 1.13 | 1.11 | 1.19 |  | 1.21
3 | NCI-H2228 | 0.423 | 0.36 | 0.248 | 0.45 | 0.284 | 1.14 | 1.05 | 0.975 | 0.827 | 0.75 | 0.524 | 0.455 | 0.449 | 0.555 | 0.448 | 0.586 | 0.555 | 0.752 | 0.521 | 0.414
4 | NCI-H1734 | 0.417 | 0.47 | 0.405 | 0.482 | 0.491 | 0.89 | 0.888 | 0.844 |  | 0.765 | 0.658 | 0.688 | 0.646 |  | 0.647 | 0.883 | 0.954 | 0.876 |  | 0.781
5 | PC-14 | 0.681 | 0.752 | 0.756 | 0.624 | 0.73 | 1.07 | 1.03 | 0.954 | 0.959 | 0.907 | 0.921 | 0.888 | 0.845 | 0.999 | 0.926 | 1.02 | 1.04 | 1.01 | 1.05 | 0.94
6 | NCI-H1915 | 0.913 | 0.915 | 0.873 | 0.93 | 0.95 | 1.12 | 1.12 | 1.15 |  | 1.1 | 0.973 | 0.892 | 0.915 |  | 0.907 | 1.15 | 1.12 | 1.15 |  | 1.14
7 | NCI-H1666 | 0.41 | 0.341 | 0.42 | 0.486 | 0.321 | 1.04 | 0.928 | 0.893 | 0.948 | 0.896 | 0.948 | 0.914 | 0.927 | 0.991 | 1.08 | 0.759 | 0.775 | 0.773 | 0.708 | 0.757
8 | HCC-366 | 0.0934 | 0.104 | 0.23 | 0.151 | 0.113 | 0.872 | 0.92 | 1 | 0.966 | 1.01 | 0.38 | 0.633 | 0.562 |  | 0.393 | 0.698 | 0.643 | 0.951 |  | 0.567
9 | SK-MES-1 | 0.358 | 0.361 | 0.318 | 0.367 | 0.383 | 0.999 | 1.05 | 0.838 | 0.844 | 0.921 | 1.08 | 1.04 | 0.908 | 0.984 | 0.994 | 1.13 | 1.31 | 1.12 | 1.01 | 1.11
10 | SW 1573 | 0.504 | 0.402 | 0.443 | 0.56 | 0.484 | 1.03 | 0.965 | 1.11 | 0.749 | 1.02 | 0.728 | 0.796 | 0.761 | 0.859 | 0.903 | 0.942 | 0.674 | 0.694 | 0.746 | 0.843
11 | NCI-H661 | 0.29 |  | 0.431 | 0.473 | 0.371 | 1.14 | 1.16 | 1.07 | 0.93 | 1.2 | 1.21 | 0.975 | 0.981 | 1.06 | 1.12 | 0.622 | 0.644 | 0.596 | 0.419 | 0.474
12 | PC-3 [JPC-3] | 0.717 | 0.7 | 0.59 | 0.764 | 0.791 | 1.13 | 1.11 | 1.12 | 1.08 | 1.05 | 1.08 | 0.975 | 1.08 |  | 0.962 | 0.99 | 0.927 | 0.978 |  | 1.04
13 | NCI-H1623 |  |  |  |  |  | 1.05 | 0.903 | 0.892 | 0.841 | 0.833 |  |  |  |  |  |  |  |  |  | 
14 | Calu-6 | 0.885 | 0.859 | 0.921 | 0.902 | 0.856 | 1 | 1.01 | 0.934 | 0.917 | 0.874 | 0.838 | 0.829 | 0.692 | 1.02 | 0.665 | 1.09 | 0.918 | 1.02 | 0.986 | 0.918
15 | LC-2-ad | 0.487 | 0.372 | 0.456 | 0.414 | 0.374 | 1 | 1.07 | 0.908 | 0.794 | 0.878 | 0.412 | 0.444 | 0.434 | 0.572 | 0.41 | 0.863 | 0.91 | 0.845 | 0.853 | 0.918
16 | CAL-12T | 0.516 | 0.494 | 0.221 | 0.555 | 0.523 | 1.12 | 1.1 | 1.13 | 1.11 | 1.03 | 0.689 | 0.713 | 0.479 | 0.839 | 0.518 | 0.82 | 0.828 | 0.805 | 0.887 | 0.832
17 | RERF-LC-KJ | 0.476 | 0.539 | 0.552 | 0.574 | 0.477 | 0.877 | 0.918 | 0.922 | 0.868 | 0.893 | 0.805 | 0.86 | 0.787 | 0.848 | 0.884 | 0.889 | 0.865 | 0.872 | 0.957 | 0.893
